Measured values as given in US20090325959A1 (priority 2008, published 2009).
Like-named read-outs stand apart in the source and are kept apart here.

What was measured:
[1] = target: T1, p70S6K human enzyme (Homo sapiens, UniProt P23443, T412E); test: p70S6K inhibition assay (IMAP FP); format: biochemical;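 also: kinase reaction run at room temperature, phosphorylated substrate captured on IMAP beads and read as fluorescence polarization in mP, IC50 then converted to Ki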
T1 construct: purchased Upstate Chemicon 14-486
Procedure: Inhibition of Akt3 and p70S6K activity was determined using the IMAP™ FP Progressive Binding Kit (Molecular Devices product number R8127). […] Following the pre-incubation, 30 μM ATP was added to initiate the reaction. After 60 minutes at RT, Molecular Devices IMAP™ binding solution was added to bind phosphorylated substrate. After 30 minutes of incubation in the presence of the IMAP™ beads the fluorescence polarization was read and the ratio was reported as mP. IC50 results were calculated using the Prism software from Graphpad. The Ki values were determined according to the following formula: Ki=IC50/(1+([ATP Challenge]/EC50 ATP)).

[2] = target: T2, Akt3 human enzyme (Homo sapiens, UniProt Q9Y243); test: Akt3 inhibition assay (IMAP FP); format: biochemical;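 also: kinase reaction run 60 min at room temperature after 30 µM ATP start, phosphorylated substrate captured on IMAP beads and read as fluorescence polarization (mP)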
T2 construct: purchased Upstate Chemicon 14-502

[3] = target: T3, ROCK2 (Homo sapiens, UniProt O75116); test: Rho kinase inhibition assay (IMAP fluorescence polarization), ROCK2; format: biochemical;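 also: kinase reaction started with 10 µM ATP and run 60 min at room temperature, then phosphorylated substrate captured on IMAP beads for 30 min and fluorescence polarization read in mP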
T3 construct: purchased Upstate/Chemicon 14-451
Procedure: (§1) Following the pre-incubation, 10 μM ATP was added to initiate the reaction. After 60 minutes at room temperature, Molecular Devices IMAP™ binding solution was added to bind phosphorylated substrate. After 30 minutes of incubation in the presence of the IMAP™ beads, the fluorescence polarization was read and the ratio was reported as mP. IC50 values for compounds and EC50 values for ATP were calculated using the Prism software from Graphpad.

[4] = Compound plasma concentrations in unsensitized mice at 15 min post administration; format: in vivo; conditions: mouse, 15 μmol/kg; mean compound plasma concentration in mice at 15 minutes post oral administration; read-out: Mouse Oral PK
[5] = target: T4, ROCK1 (Homo sapiens, UniProt Q13464); test: Rho kinase inhibition assay (IMAP fluorescence polarization), ROCK1; format: biochemical;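 also: kinase reaction run 60 min at room temperature, then phosphorylated substrate captured on IMAP beads for 30 min, with fluorescence polarization read in mP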
T4 construct: purchased Upstate/Chemicon 14-601
Procedure: as §1

[6] = tested on: A-10 rat thoracic aorta cells; test: PDGF-stimulated smooth muscle cell proliferation assay (BrdU incorporation); format: cell-based; conditions: A-10 cells, 10 ng/mL PDGF, BrdU incorporation, percent of total challenge-stimulated proliferation; for Percent of PDGF Induced Proliferation at 1 μM Avg: 1 μM test compound; for Percent of PDGF Induced Proliferation at 10 μM Avg: 10 μM test compound;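 as to all read-outs here: cells kept in serum-free medium, BrdU allowed to incorporate for 24 h, then incorporated label detected fluorometrically with an anti-BrdU antibody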
[7] = 30 μM ATP, Ki=IC50/(1+([ATP Challenge]/EC50 ATP)), read-out: p70S6K Ki, Avg
[8] = average Ki, read-out: p70S6K Ki
[9] = 30 μM ATP, Ki=IC50/(1+([ATP Challenge]/EC50 ATP)), read-out: Akt3 Ki, Avg
[10] = 10 μM ATP, read-out: ROCK2 Ki, Avg

T3 sequence (O75116 11-552 limits assumed): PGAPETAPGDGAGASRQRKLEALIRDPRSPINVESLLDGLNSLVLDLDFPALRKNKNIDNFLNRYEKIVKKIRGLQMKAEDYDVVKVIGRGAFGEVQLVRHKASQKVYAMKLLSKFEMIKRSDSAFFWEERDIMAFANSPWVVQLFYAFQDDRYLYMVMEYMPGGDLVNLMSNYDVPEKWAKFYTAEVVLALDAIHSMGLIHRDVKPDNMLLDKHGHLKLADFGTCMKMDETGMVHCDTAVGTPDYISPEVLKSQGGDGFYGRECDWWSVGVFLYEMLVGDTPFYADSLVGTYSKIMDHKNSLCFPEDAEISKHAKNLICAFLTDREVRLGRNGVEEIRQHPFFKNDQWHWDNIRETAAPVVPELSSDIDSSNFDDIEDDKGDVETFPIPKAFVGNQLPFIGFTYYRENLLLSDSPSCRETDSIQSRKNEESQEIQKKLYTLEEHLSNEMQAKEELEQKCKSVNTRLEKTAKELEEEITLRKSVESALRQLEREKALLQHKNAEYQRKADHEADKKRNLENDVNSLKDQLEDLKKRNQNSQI
T1 sequence (P23443 1-421 T412E limits assumed): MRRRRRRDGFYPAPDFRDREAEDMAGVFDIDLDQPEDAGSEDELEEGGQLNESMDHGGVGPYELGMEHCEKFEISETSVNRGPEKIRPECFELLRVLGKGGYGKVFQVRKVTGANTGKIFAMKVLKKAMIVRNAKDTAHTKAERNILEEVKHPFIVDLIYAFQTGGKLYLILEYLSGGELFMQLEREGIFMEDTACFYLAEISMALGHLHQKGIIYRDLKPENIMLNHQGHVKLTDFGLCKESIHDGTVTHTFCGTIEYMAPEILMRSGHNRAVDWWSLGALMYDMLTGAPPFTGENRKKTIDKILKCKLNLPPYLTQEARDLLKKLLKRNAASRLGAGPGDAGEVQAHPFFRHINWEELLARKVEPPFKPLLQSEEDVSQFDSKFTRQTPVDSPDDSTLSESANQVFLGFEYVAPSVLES
T2 sequence (Q9Y243 whole entry): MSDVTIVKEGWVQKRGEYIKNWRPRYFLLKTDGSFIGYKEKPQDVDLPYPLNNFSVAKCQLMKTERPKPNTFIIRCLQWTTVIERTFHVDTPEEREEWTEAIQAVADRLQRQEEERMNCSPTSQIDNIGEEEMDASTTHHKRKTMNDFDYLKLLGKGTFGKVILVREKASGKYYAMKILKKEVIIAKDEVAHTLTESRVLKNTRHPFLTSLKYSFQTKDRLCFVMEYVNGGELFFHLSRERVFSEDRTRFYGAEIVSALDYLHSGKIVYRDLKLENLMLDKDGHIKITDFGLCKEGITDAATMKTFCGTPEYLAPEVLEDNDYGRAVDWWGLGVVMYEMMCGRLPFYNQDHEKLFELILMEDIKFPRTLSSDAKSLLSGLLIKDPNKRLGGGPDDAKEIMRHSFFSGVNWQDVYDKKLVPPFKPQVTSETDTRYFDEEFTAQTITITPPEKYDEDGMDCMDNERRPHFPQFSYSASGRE
T4 sequence (Q13464 17-535 limits assumed): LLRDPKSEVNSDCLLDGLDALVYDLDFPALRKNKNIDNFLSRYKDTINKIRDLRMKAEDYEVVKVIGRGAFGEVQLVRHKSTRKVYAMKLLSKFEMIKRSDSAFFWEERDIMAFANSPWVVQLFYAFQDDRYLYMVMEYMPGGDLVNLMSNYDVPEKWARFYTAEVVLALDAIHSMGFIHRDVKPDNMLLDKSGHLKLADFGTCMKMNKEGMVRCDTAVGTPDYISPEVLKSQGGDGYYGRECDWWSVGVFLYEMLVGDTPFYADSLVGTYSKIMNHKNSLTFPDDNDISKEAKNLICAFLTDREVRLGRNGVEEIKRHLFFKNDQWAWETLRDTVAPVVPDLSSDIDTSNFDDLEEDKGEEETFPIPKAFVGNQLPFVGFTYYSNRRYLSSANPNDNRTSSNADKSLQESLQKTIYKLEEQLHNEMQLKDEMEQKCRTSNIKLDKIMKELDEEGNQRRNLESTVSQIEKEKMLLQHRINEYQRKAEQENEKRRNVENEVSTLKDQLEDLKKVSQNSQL

| Compound | Ki [1, 7] [nM] | Ki [1, 8] [nM] | Ki [2, 9] [nM] | Ki ([2]; average Ki, read-out: Akt3 Ki) [nM] | Ki [3, 10] [nM] | Ki ([3]; average Ki, read-out: ROCK2 Ki) [nM] | concentration at 15 min [4] [nM] | Ki ([5]; Avg, 10 μM ATP) [nM] | Ki ([5]; average Ki) [nM] | Percent of PDGF Induced Proliferation at 1 μM Avg [6] [%] | Percent of PDGF Induced Proliferation at 10 μM Avg [6] [%] |
| --- | --- | --- | --- | --- | --- | --- | --- | --- | --- | --- | --- |
| C#Cc1ccc(CN2CCC[C@@H](Nc3ccc4[nH]ncc4c3)C2)cc1 [Compound 1.076, (R)-N-(1-(4-ethynylbenzyl)piperidin-3-yl)-1H-indazol-5-amine] | 414 | 414 | 241 | 241 | 2.6 | 2.6 | 1720 | 14.3 | 14.3 | 84.0 | 53.7 |
| Clc1ccc(CN2CCC[C@@H](Nc3ccc4[nH]ncc4c3)C2)cc1 [Compound 1.132, (R)-N-(1-(4-chlorobenzyl)piperidin-3-yl)-1H-indazol-5-amine] | 515 | 515 | 81.8 | 81.8 | 3.5 | 3.5 | 982 | 22.5 | 22.5 | 48.9 | 30.3 |
| c1cc2ccc(CN3CCC[C@H](Nc4ccc5[nH]ncc5c4)C3)cc2[nH]1 [Compound 1.148, (S)-N-(1-((1H-indol-6-yl)methyl)piperidin-3-yl)-1H-indazol-5-amine] | 436 | 436 | 1130 | 1130 | 3.6 | 3.6 | 767 | 24.3 | 24.3 | 56.9 | 63.5 |
| Cc1ccc(CN2CCC[C@H](Nc3ccc4[nH]ncc4c3)C2)cc1O [Compound 1.151, (S)-5-((3-(1H-indazol-5-ylamino)piperidin-1-yl)methyl)2-methylphenol] | 531 |  | 709 |  | 2.9 |  |  | 22.8 |  | 51.0 | 63.8 |
| NC(=O)Cn1ccc2cc(CN3CCC[C@H](Nc4ccc5[nH]ncc5c4)C3)ccc21 [Compound 1.165, (S)-2-(5-((3-(1H-indazol-5-ylamino)piperidin-1-yl)methyl)-1H-indol-1-yl)acetamide] | 1630 | 1630 | 4140 | 4140 | 3.4 | 3.4 | 94 | 50.7 | 50.7 | 74.8 | 57.9 |
| FC(F)(F)c1ccc(CN2CCC[C@H](Nc3ccc4[nH]ncc4c3)C2)cc1 [Compound 1.167, (S)-N-(1-(4-(trifluoromethyl)benzyl)piperidin-3-yl)-1H-indazol-5-amine] | 1070 |  | 8250 |  | 18.5 |  |  | 119 |  | 78.8 | 52.7 |
| CC(C)c1ccc(CN2CCC[C@H](Nc3ccc4[nH]ncc4c3)C2)cc1 [Compound 1.180, (S)-N-(1-(4-isopropylbenzyl)piperidin-3-yl)-1H-indazol-5-amine] | 1030 |  | 12000 |  | 23.1 |  |  | 138 |  | 92.4 | 64.8 |
| CC(C)c1ccc(CN2CCC[C@@H](Nc3ccc4[nH]ncc4c3)C2)cc1 [Compound 1.204, (R)-N-(1-(4-isopropylbenzyl)piperidin-3-yl)-1H-indazol-5-amine] | 927 |  | 1910 |  | 31.9 |  |  | 196 |  | 79.3 | 42.8 |
| OCCN1CCc2ccc(CN3CCC[C@H](Nc4ccc5[nH]ncc5c4)C3)cc21 [Compound 1.217, (S)-2-(6-((3-(1H-indazol-5-ylamino)piperidin-1-yl)methyl)indolin-1-yl)ethanol] | 3500 | 3500 | 10300 | 10300 | 12.1 | 12.1 | 293 | 70.1 | 70.1 |  |  |
| NC(=O)c1cccc(CN2CCC[C@H](Nc3ccc4[nH]ncc4c3)C2)c1 [Compound 1.219, (8)-3-((3-(1H-indazol-5-ylamino)piperidin-1-yl)methyl)benzamide] | 4970 | 4970 | 38300 | 38300 | 15.4 | 15.4 | 1680 | 344 | 344 |  |  |
| OCc1ccc(CN2CCC[C@H](Nc3ccc4[nH]ncc4c3)C2)cc1 [Compound 1.223, (S)-(4-((3-(1H-indazol-5-ylamino)piperidin-1-yl)methyl)phenyl)methanol] | 3100 | 3100 | 11100 | 11100 | 15.7 | 15.7 | 13 | 239 | 239 |  |  |
| Cc1ccc(CN2CCC[C@H](Nc3ccc4[nH]ncc4c3)C2)cc1NS(C)(=O)=O [Compound 1.233, (S)-N-(5-((3-(1H-indazol-5-ylamino)piperidin-1-yl)methyl)-2-methylphenyl)methanesulfonamide] | 2000 | 2000 | 2630 | 2630 | 1.3 | 1.3 | 41 | 47.2 | 47.2 |  |  |
| CCCCS(=O)(=O)Nc1cc(CN2CCC[C@H](Nc3ccc4[nH]ncc4c3)C2)ccc1C [Compound 1.236, (S)-N-(5-((3-(1H-indazol-5-ylamino)piperidin-1-yl)methyl)-2-methylphenyl)butane-1-sulfonamide] | 2760 | 2760 | 3720 | 3720 | 2.1 | 2.1 | 48 | 49.3 | 49.3 |  |  |
| NS(=O)(=O)c1cccc(CN2CCC[C@@H](Nc3ccc4[nH]ncc4c3)C2)c1 [Compound 1.249, (R)-3-((3-(1H-indazol-5-ylamino)piperidin-1-yl)methyl)benzenesulfonamide] | 937 | 937 | 1600 | 1600 | 8.6 | 8.6 | 2150 | 91.7 | 91.7 |  |  |
| c1ccc2c(CN3CCC[C@@H](Nc4ccc5[nH]ncc5c4)C3)c[nH]c2c1 [Compound 1.252, (R)-N-(1-((1H-indol-3-yl)methyl)piperidin-3-yl)-1H-indazol-5-amine] | 171 | 171 | 205 | 205 | 4.5 | 4.5 | 1260 | 30.5 | 30.5 |  |  |
| CSc1ccc(CN2CCCC(Nc3cccc4cnccc34)C2)cc1 (stereo not drawn) [Compound 2.009, N-(1-(4-(methylthio)benzyl)piperidin-3-yl)isoquinolin-5-amine] | 1280 |  | 3730 |  |  |  |  |  |  | 128.9 | 56.5 |
| c1cc(N[C@@H]2CCN(Cc3ccc(C4CC4)cc3)C2)c2ccncc2c1 [Compound 2.022, (R)-N-(1-(4-cyclopropylbenzyl)pyrrolidin-3-yl)isoquinolin-5-amine] | 501 |  | 4120 |  | 15.3 |  |  | 44.8 |  | 89.7 | 39.4 |
| Clc1ccc(CN2CC[C@@H](Nc3cccc4cnccc34)C2)cc1 [Compound 2.027, (R)-N-(1-(4-chlorobenzyl)pyrrolidin-3-yl)isoquinolin-5-amine] | 509 |  | 658 |  | 7.4 |  |  | 15.7 |  | 79.4 | 64.4 |
| c1cc(N[C@@H]2CCN(Cc3ccc4occc4c3)C2)c2ccncc2c1 [Compound 2.055, (R)-N-(1-(benzofuran-5-ylmethyl)pyrrolidin-3-yl)isoquinolin-5-amine] | 312 | 312 | 978 | 978 | 6.4 | 6.4 | 656 | 16 | 16 |  |  |
| OCCn1ccc2ccc(CN3CC[C@@H](Nc4cccc5cnccc45)C3)cc21 [Compound 2.060, (R)-2-(6-((3-(isoquinolin-5-ylamino)pyrrolidin-1-yl)methyl)-1H-indol-1-yl)ethanol] | 181 | 181 | 329 | 329 | 3.2 | 3.2 | 308 | 4.9 | 4.9 |  |  |
